Like-named read-outs stand apart in the source and are kept apart here.
Assays:
[1] = test system: patients with Fabry disease with amenable mutations; format: in vivo, human
Procedure: These analyses included data from 4 Phase 2 and 4 Phase 3 clinical trials with the data cutoff of Feb.
FAB-CL-202 (NCT00283959), FAB-CL-203 (NCT00283933), and FAB-CL-204 (NCT00304512) were phase 2, open-label, noncomparative studies that evaluated the safety, tolerability, pharmacokinetics (PK), and pharmacodynamics (PD) of migalastat (dose range: 50-250 mg) in patients with Fabry disease.
FAB-CL-205 (NCT0052607) was a phase 2, long-term, open-label extension (OLE) study for patients completing phase 2 clinical trials, including FAB-CL-202, FAB-CL-203, and FAB-CL-204. The study included a period with migalastat 150 mg every other day (QOD), then a dose-escalation period, followed by 150 mg QOD.
FACETS (AT1001-011, NCT00925301) was a phase 3, placebo-controlled study designed to evaluate the efficacy, safety, and PD of 6 months of migalastat 150 mg QOD versus placebo, followed by an 18-month open label extension (OLE) of migalastat in ERT-naive patients with Fabry disease and migalastat-amenable GLA variants.
AT1001-041 (NCT01458119) was a long-term OLE study evaluating the long-term safety and efficacy of migalastat in patients completing FAB-CL-205, AT1001-011, or AT1001-012
AT1001-042 (NCT02194985) is an ongoing, long-term OLE study evaluating the long-term safety and efficacy of migalastat in patients who participated in AT1001-012 or AT1001-041.
The analysis evaluates CBV events reported as treatment-emergent adverse events (TEAEs) during migalastat 150 mg QOD treatment in patients with amenable mutations in phase 2 and phase 3 clinical trials.
CBV events were identified by searching medical history and TEAE listings with stroke-related terms, including brain stem ischemia, cerebral infarction, cerebral hemorrhage, cerebral ischemia, cerebrovascular accident, embolic stroke, and TIA.
Only amenable patients who received at least 1 dose of migalastat 150 mg QOD were included in this analysis.

[2] = Population PK (popPK) model of migalastat in adults (NONMEM, bootstrap); design: species or system human; conditions: for Typical V2/F, Estimate (% RSE): Fabry disease; for Typical V2/F, Estimate (% RSE) / Typical Q/F, Estimate (% RSE) / Typical V3/F, Estimate (% RSE): body weight ≥ 70 kg
Procedure: A population pharmacokinetics (popPK) model previously developed from healthy adult volunteers and adult patients with Fabry disease after oral migalastat administration. After pooling plasma concentration-time data from Phase I, II, and III studies of AT1001 administered orally in adults using a range of doses from 25 mg to 675 mg and regimens under fasting conditions. […] In contrast, other covariates such as sex, age, drug formulation (solution or suspension vs 25 mg capsule vs 150 mg capsule) were not statistically/clinically significant. Since renal function gradually increases from birth and reaches adult levels by the second year of life (Rubin 1949), there are no expected age-dependent changes in eGFR in the pediatric population 2 years and older than adults. Additionally, pediatric patients with Fabry disease usually have a normal renal function or may experience renal hyperfiltration (Hopkin 2008); therefore, weight-based dosing regimens, assuming that pediatrics have a normal renal function, were planned for the simulations in pediatric Fabry patients. NONMEM program was used to develop the population PK model of migalastat in adults using first-order conditional estimation with interaction (FOCE-I). Simulations were conducted using NONMEM to obtain plasma concentration-time; all graphical analyses were performed using R; noncompartmental analysis and pharmacokinetic parameters summaries were conducted using Phoenix WinNonlin. Bootstrapping and visual predictive checks (VPC)s were conducted using Perl-speaks-NONMEM (PsN) R packages of popED and mrgsolve were used in the optimal sampling strategy. […] The overall purpose of the model development was to come up with a model for pediatric extrapolation. […] Moreover, pediatric CLT/F values extrapolated from the non-renal model were higher than the overall CLT/F approach, resulting in higher pediatric doses for achieving equivalent exposures with adults which was a less conservative approach. Therefore, the overall CLT/F scaling approach is more conservative and was chosen for the final model, which is shown in Table 6. The estimated parameters from bootstrap (see Table 6) were nearly identical to those estimated from the original dataset. All parameters were estimated with adequate precision.

[3] = test system: pediatric subjects with Fabry disease and amenable GLA variants; test: AT1001-020 Stage 1 safety in pediatric subjects (interim analysis)
Procedure: All safety analyses were performed using the safety population.
During Stage 1, urinalysis (albumin, protein, specific gravity, pH, and microscopy) was the only laboratory parameter collected at Month 1 and therefore, the only laboratory parameter assessed for the Interim Analysis.

[4] = AT1001-020 Stage 1 pharmacokinetics (sparse plasma sampling, LC-MS/MS, popPK); format: in vivo, human
Procedure: Migalastat levels can be measured via methods known in the art. For example, if measuring migalastat from tissue samples, tissue aliquots may be homogenized (7 μL water per 1 mg tissue) using a homogenizer (e.g., FastPrep-24 from MP Biomedical, Irvine, CA). Microcentrifuge tubes containing 100 μl of the tissue homogenate or 50 μl of plasma may then be spiked with 500 ng/ml 13C d2-AT1001 HCl internal standard (manufactured by MDS Pharma Services). A 600 μl volume of 5 mM HCl in 95/5 MeOH:H2O can then be added and the tubes vortexed for 2 minutes, followed by centrifugation at 21000×g for 10 minutes at room temperature. […] After several wash steps and elution into a clean, 96-well plate, the extracts may be dried down under N2 and reconstituted with mobile phase A. Migalastat levels can then be determined by liquid chromatography-tandem mass spectroscopy (LC-MS/MS) (e.g., LC: Shimadzu; MS/MS: ABSciex API 5500 MS/MS). […] The following precursor ion->product ion transitions may be monitored: mass/charge (m/z) 164.1→m/z 80.1 for migalastat and m/z 167.1→m/z 83.1 for the internal standard. […] The ratio of the area under the curve for migalastat to that of the internal standard is then determined and final concentrations of migalastat in each sample calculated using the linear least squares fit equation applied to the calibration curve. […]
Plasma samples were analyzed using the LC-MS/MS method. […]

[5] = 150 mg QOD, FAB-CL 202, 203, 204, and 205 (n = 17)
[6] = Safety Population (N = 9), Stage 1

OC[C@H]1NC[C@H](O)[C@@H](O)[C@H]1O [migalastat, (2R,3S,4R,5S)-2-(hydroxymethyl) piperdine-3,4,5-triol]
Any CBV event during treatment, unique patients ([1]; 150 mg QOD, ATTRACT (n = 49)): 2 (4%)
Brain stem ischemia during treatment, patients ([1]; 150 mg QOD, ATTRACT (n = 49)): 0
Cerebral hemorrhage during treatment, patients ([1]; 150 mg QOD, ATTRACT (n = 49)): 0
Cerebral infarction during treatment, patients ([1]; 150 mg QOD, ATTRACT (n = 49)): 0
Cerebral ischemia during treatment, patients ([1]; 150 mg QOD, ATTRACT (n = 49)): 0
Cerebrovascular accident during treatment, patients ([1]; 150 mg QOD, ATTRACT (n = 49)): 0
Embolic stroke during treatment, patients ([1]; 150 mg QOD, ATTRACT (n = 49)): 0
Transient ischemic attack during treatment, patients ([1]; 150 mg QOD, ATTRACT (n = 49)): 2 (4%)
Any CBV event during treatment, unique patients [1, 5]: 3 (18%)
Brain stem ischemia during treatment, patients [1, 5]: 0
Cerebral hemorrhage during treatment, patients [1, 5]: 0
Cerebral infarction during treatment, patients [1, 5]: 1 (6%)
Cerebral ischemia during treatment, patients [1, 5]: 1 (6%)
Cerebrovascular accident during treatment, patients [1, 5]: 1 (6%)
Embolic stroke during treatment, patients [1, 5]: 0
Transient ischemic attack during treatment, patients [1, 5]: 1 (6%)
Any CBV event during treatment, unique patients ([1]; 150 mg QOD, FACETS (n = 48)): 3 (6%)
Brain stem ischemia during treatment, patients ([1]; 150 mg QOD, FACETS (n = 48)): 1 (2%)
Cerebral hemorrhage during treatment, patients ([1]; 150 mg QOD, FACETS (n = 48)): 1 (2%)
Cerebral infarction during treatment, patients ([1]; 150 mg QOD, FACETS (n = 48)): 0
Cerebral ischemia during treatment, patients ([1]; 150 mg QOD, FACETS (n = 48)): 0
Cerebrovascular accident during treatment, patients ([1]; 150 mg QOD, FACETS (n = 48)): 0
Embolic stroke during treatment, patients ([1]; 150 mg QOD, FACETS (n = 48)): 0
Transient ischemic attack during treatment, patients ([1]; 150 mg QOD, FACETS (n = 48)): 1 (2%)
Number of CBV events reported during treatment ([1]; 150 mg QOD, N = 114): 11
Brain stem ischemia during treatment, patients ([1]; 150 mg QOD, Total (N = 114)): 1 (1%)
Cerebral hemorrhage during treatment, patients ([1]; 150 mg QOD, Total (N = 114)): 1 (1%)
Cerebral infarction during treatment, patients ([1]; 150 mg QOD, Total (N = 114)): 1 (1%)
Cerebral ischemia during treatment, patients ([1]; 150 mg QOD, Total (N = 114)): 1 (1%)
Cerebrovascular accident during treatment, patients ([1]; 150 mg QOD, Total (N = 114)): 1 (1%)
Embolic stroke during treatment, patients ([1]; 150 mg QOD, Total (N = 114)): 0
Transient ischemic attack during treatment, patients ([1]; 150 mg QOD, Total (N = 114)): 4 (4%)
CBV events categorized as serious adverse events (SAE) ([1]; 150 mg QOD, of 11 CBV events): Seven
CBV events considered related to treatment ([1]; 150 mg QOD, of 11 CBV events): None
CBV events mild or moderate in severity ([1]; 150 mg QOD, of 11 CBV events): 82%
CBV events that led to treatment discontinuation ([1]; 150 mg QOD, of 11 CBV events): Two
Time on migalastat 150 mg QOD at first event onset, mean (SD) ([1]; 8 patients with CBV events): 1.1 (1.1) years
Patients with pre-migalastat CBV event who did not experience new CBV event during treatment ([1]; among the 16 patients with pre-migalastat CBV event): 10 (63%)
Overall incidence of CBV events during migalastat treatment ([1]; average of 4 years of migalastat): low
EGFR-related exponential index on CL/F, Estimate (% RSE) ([2]; Bootstrap): 0.925 (5.25%);
Fractional Change in V2/F in subjects without Fabry disease (decrease in V2/F), Estimate (% RSE) ([2]; Bootstrap): −0.305 (12.3%);
Fractional Change in total CL/F in subjects without Fabry disease (decrease in total CL/F), Estimate (% RSE) ([2]; Bootstrap): −0.151 (23.5%);
Ka (intercept), Estimate (% RSE) ([2]; Bootstrap): 0.256 (8.60%); h^−1
Ka (slope), Estimate (% RSE) ([2]; Bootstrap): 0.282 (7.45%);
Lag time, Estimate (% RSE) ([2]; Bootstrap): 0.176 (4.52%); h
Typical V2/F, Estimate (% RSE) ([2]; Bootstrap): 69.7 (4.8%); L
Typical Q/F, Estimate (% RSE) ([2]; Bootstrap): 1.01 (4.59%); L/h
Typical V3/F, Estimate (% RSE) ([2]; Bootstrap): 27.5 (11.9%); L
EGFR-related exponential index on CL/F, Estimate (% RSE) ([2]; NONMEM): 0.922 (5.64%);
Fractional Change in V2/F in subjects without Fabry disease (decrease in V2/F), Estimate (% RSE) ([2]; NONMEM): −0.306 (12.8%);
Fractional Change in total CL/F in subjects without Fabry disease (decrease in total CL/F), Estimate (% RSE) ([2]; NONMEM): 0.150 (24.9%);
Ka (intercept), Estimate (% RSE) ([2]; NONMEM): 0.256 (9.41%); h^−1
Ka (slope), Estimate (% RSE) ([2]; NONMEM): 0.284 (9.12%);
Lag time, Estimate (% RSE) ([2]; NONMEM): 0.175 (4.65%); h
Typical V2/F, Estimate (% RSE) ([2]; NONMEM): 70.1 (5.29%); L
Typical Q/F, Estimate (% RSE) ([2]; NONMEM): 1.00 (5.17%); L/h
Typical V3/F, Estimate (% RSE) ([2]; NONMEM): 27.5 (11.7%); L
Average difference in migalastat exposure with subject weight ([2]; body weights between 50 and 170 kg): < 2 fold
Time within which the drug is considered fairly fully absorbed ([2]; oral, regardless of the absorption model chosen): 7 to 10 h
Changes in mean values from baseline for urinalysis parameters ([3]; Month 1): no clinically meaningful changes
Subjects with urine pH from normal at baseline to high at Month 1 ([3]; Safety Population (N = 9)): Three
Number of subjects discontinued due to TEAEs [3, 6]: 0 n (%)
Number of subjects with AEs leading to death [3, 6]: 0 n (%)
Number of subjects with TEAEs [3, 6]: 5 (55.6) n (%)
Number of subjects with related TEAEs [3, 6]: 1 (11.1) n (%)
Number of subjects with treatment-emergent SAEs [3, 6]: 0 n (%)
Number of TEAEs ([3]; Safety Population (N = 9), Stage 1, 123 mg capsule QOD): 6 n
Drug eruption, Number of Events ([3]; Safety Population, Stage 1): 1 (16.7) n (%)
Drug eruption, Number of Subjects ([3]; Safety Population, Stage 1): 1 (11.1) n (%)
Headache, Number of Events ([3]; Safety Population, Stage 1): 1 (16.7) n (%)
Headache, Number of Subjects ([3]; Safety Population, Stage 1): 1 (11.1) n (%)
Infections and infestations, Number of Events ([3]; Safety Population, Stage 1): 4 (66.7) n (%)
Infections and infestations, Number of Subjects ([3]; Safety Population, Stage 1): 4 (44.4) n (%)
Nervous system disorders, Number of Events ([3]; Safety Population, Stage 1): 1 (16.7) n (%)
Nervous system disorders, Number of Subjects ([3]; Safety Population, Stage 1): 1 (11.1) n (%)
Pharyngitis, Number of Events ([3]; Safety Population, Stage 1): 1 (16.7) n (%)
Pharyngitis, Number of Subjects ([3]; Safety Population, Stage 1): 1 (11.1) n (%)
Skin and subcutaneous tissue disorders, Number of Events ([3]; Safety Population, Stage 1): 1 (16.7) n (%)
Skin and subcutaneous tissue disorders, Number of Subjects ([3]; Safety Population, Stage 1): 1 (11.1) n (%)
Upper respiratory tract infection, Number of Events ([3]; Safety Population, Stage 1): 3 (50.0) n (%)
Upper respiratory tract infection, Number of Subjects ([3]; Safety Population, Stage 1): 3 (33.3) n (%)
Potentially clinically significant abnormalities in urinalysis parameters ([3]; Stage 1): no potentially clinically significant abnormalities
New safety findings ([3]; Stage 1, 123 mg, pediatric patients aged ≥12 to 16 years): No new safety findings
Cmax levels observed in the pediatric patients versus adults in study AT1001-011 ([4]; 123 mg capsule QOD): in line with the Cmax levels observed in adults patients
Exposure in adults and adolescents weighing >45 kg (popPK) ([4]; 123 mg capsule q.o.d., adolescent patients (n=9)): comparable

Source: patent US20240293387A1, “Methods of Treating Fabry Disease in Pediatric Patients” (Amicus Therapeutics, Inc., priority 2021, published 2024)
